Experimental data taken from US20090099169A1, “Benzofuran Compounds As EP1 Receptor Antagonists” (GLAXO GROUP LIMITED, priority 2006, published 2009).
Counter-ions that a name gives are not always drawn.

Columns and labels:
human EP3 receptor = molecular target: T1, human EP3 receptor (Homo sapiens, UniProt P43115); test: human EP3 calcium mobilisation assay; format: cell-based; settings: CHO-K1 cells, antagonism of PGE2; averages of a number of experiments; read-out: functional pKi value (human EP3 calcium mobilisation assay) (converted)
T1 construct: expressed in transfected cells; host or cells: CHO-K1
T1 sequence (P43115 1-390): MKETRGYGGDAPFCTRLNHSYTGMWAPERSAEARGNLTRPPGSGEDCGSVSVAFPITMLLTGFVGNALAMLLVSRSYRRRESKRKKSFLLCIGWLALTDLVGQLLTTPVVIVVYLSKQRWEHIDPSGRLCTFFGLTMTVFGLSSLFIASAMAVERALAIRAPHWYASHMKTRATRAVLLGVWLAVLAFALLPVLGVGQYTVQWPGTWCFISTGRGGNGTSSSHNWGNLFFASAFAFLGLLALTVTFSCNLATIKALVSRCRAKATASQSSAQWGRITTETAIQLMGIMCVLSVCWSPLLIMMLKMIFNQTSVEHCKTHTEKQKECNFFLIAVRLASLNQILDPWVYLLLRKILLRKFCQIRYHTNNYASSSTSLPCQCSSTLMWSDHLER
Method: (§1) Briefly, the antagonist properties of compounds are assessed by their ability to inhibit the mobilisation of intracellular calcium ([Ca^2+]i) in response to activation of EP1 or EP3 receptors by the natural agonist hormone prostaglandin E2 (PGE2). Increasing concentrations of antagonist reduce the amount of calcium that a given concentration of PGE2 can mobilise. The net effect is to displace the PGE2 concentration-effect curve to higher concentrations of PGE2. The amount of calcium produced is assessed using a calcium-sensitive fluorescent dye such as Fluo-4, AM and a suitable instrument such as a Fluorimetric Imaging Plate Reader (FLIPR). Increasing amounts of [Ca^2+]i produced by receptor activation increase the amount of fluorescence produced by the dye and give rise to an increasing signal. The signal may be detected using the FLIPR instrument and the data generated may be analysed with suitable curve-fitting software.
(§2) The human EP1 or EP3 calcium mobilisation assay (hereafter referred to as ‘the calcium assay’) utilises Chinese hamster ovary-K1 (CHO-K1) cells into which a stable (PCIN; BioTechniques 20 (1996): 102-110) vector containing either EP1 or EP3 cDNA has previously been transfected. Cells are cultured in suitable flasks containing culture medium such as DMEM:F-12 supplemented with 10% v/v foetal calf serum, 2 mM L-glutamine, 0.25 mg/ml geneticin, 100 μM flurbiprofen and 10 μg/ml puromycin.
(§3) For assay, cells are harvested using a proprietary reagent that dislodges cells such as Versene. Cells are re-suspended in a suitable quantity of fresh culture media for introduction into a 384-well plate. Following incubation for 24 hours at 37° C. the culture media is replaced with a medium containing Fluo-4 and the detergent pluronic acid, and a further incubation takes place. Concentrations of compounds are then added to the plate in order to construct concentration-effect curves. This may be performed on the FLIPR in order to assess the agonist properties of the compounds. Concentrations of PGE2 are then added to the plate in order to assess the antagonist properties of the compounds.
(§4) The data so generated may be analysed by means of a computerised curve-fitting routine. The concentration of compound that elicits a half-maximal inhibition of the calcium mobilisation induced by PGE2 (pIC50) may then be estimated.

human EP1 receptor [1] = molecular target: T2, human EP1 receptor (Homo sapiens, UniProt P34995); test: human EP1 calcium mobilisation assay; format: cell-based; parameters: expressed in transfected cells; settings: CHO-K1 cells, antagonism of PGE2; averages of a number of experiments; read-out: functional pKi value (human EP1 calcium mobilisation assay) (converted)
T2 sequence (P34995 1-402): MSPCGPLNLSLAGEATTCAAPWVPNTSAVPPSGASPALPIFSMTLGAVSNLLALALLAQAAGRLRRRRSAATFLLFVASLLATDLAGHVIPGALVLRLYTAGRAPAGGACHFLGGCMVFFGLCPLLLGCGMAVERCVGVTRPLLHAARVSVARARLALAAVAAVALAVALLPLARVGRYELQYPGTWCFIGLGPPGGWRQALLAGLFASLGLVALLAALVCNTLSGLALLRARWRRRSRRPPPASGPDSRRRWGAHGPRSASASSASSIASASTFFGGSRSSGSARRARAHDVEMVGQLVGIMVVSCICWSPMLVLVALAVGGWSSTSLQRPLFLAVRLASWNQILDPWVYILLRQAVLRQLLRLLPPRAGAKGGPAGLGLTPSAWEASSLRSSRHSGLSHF
Method: as §1, §2, §3, §4

human EP1 receptor [2] = molecular target: T2, human EP1 receptor; test: Binding assay for the human prostanoid EP1 receptor (radioligand competition); parameters: expressed in transfected cells; host or cells: CHO-K1 (membranes); settings: CHO-K1 membranes; [3H]-PGE2 for Examples 1-17, 19, 33, 34, 60 and 61, 3-{2-[5-Bromo-2-(2,4-difluorobenzyloxy)-phenyl]-5-methyl-pyrrol-1-yl}-6-[3H3-methoxy]methoxy-benzoic acid for the remaining; averages of a number of experiments; read-out: pIC50 value (binding assay for the human prostanoid EP1 receptor) (converted)
Method: Compound potencies are determined using a radioligand binding assay. In this assay compound potencies are determined from their ability to compete with tritiated prostaglandin E2 ([^3H]-PGE2) for binding to the human EP1 receptor.
This assay utilises Chinese hamster ovary-K1 (CHO-K1) cells into which a stable vector containing the EP1 cDNA has previously been transfected. Cells are cultured in suitable flasks containing culture medium such as DMEM:F-12 supplemented with 10% v/v foetal calf serum, 2 mM L-glutamine, 0.25 mg/ml geneticin, 10 μg/ml puromycin and 10 μM indomethacin.
Cells are detached from the culture flasks by incubation in calcium and magnesium free phosphate buffered saline containing 1 mM disodium ethylenediaminetetraacetic acid (Na2EDTA) and […] indomethacin for 5 min. The cells are isolated by centrifugation at 250×g for 5mins and suspended in an ice cold buffer such as 50 mM Tris, 1 mM Na2EDTA, 140 mM NaCl, 10 μM indomethacin (pH 7.4). The cells are homogenised using a Polytron tissue disrupter (2×10 s burst at full setting), centrifuged at 48,000×g for 20mins and the pellet containing the membrane fraction is washed (optional) three times by suspension and centrifugation at 48,000×g for 20mins. The final membrane pellet is suspended in an assay buffer such as 10 mM 2-[N-morpholino]ethanesulphonic acid, 1 mM Na2EDTA, 10 mM MgCl2 (pH 6). Aliquots are frozen at −80° C. until required.
(§5) For the binding assay the cell membranes, competing compounds and [^3H]-PGE2 (3 nM final assay concentration) are incubated in a final volume of 100 μl for 30 min at 30° C. All reagents are prepared in assay buffer. Reactions are terminated by rapid vacuum filtration over GF/B filters using a Brandell cell harvester. The filters are washed with ice cold assay buffer, dried and the radioactivity retained on the filters is measured by liquid scintillation counting in Packard TopCount scintillation counter.
The data are analysed using non linear curve fitting techniques to determine the concentration of compound producing 50% inhibition of specific binding (IC50).
Alternatively a similar assay may be carried out using 3-{2-[5-Bromo-2-(2,4-difluoro-benzyloxy)-phenyl]-5-methyl-pyrrol-1-yl}-6-[^3H3-methoxy]methoxy-benzoic acid instead of [^3H]-PGE2.
For the binding assay using 3-{2-[5-Bromo-2-(2,4-difluoro-benzyloxy)-phenyl]-5-methyl-pyrrol-1-yl}-6-[^3H3-methoxy]methoxy-benzoic acid instead of [^3H]-PGE2 the assay is carried out using a similar procedure to that described above using [^3H]-PGE2 with the following changes:
as §5, with “The” for “For the binding assay the”, “3-{2-[5-Bromo-2-(2,4-difluoro-benzyloxy)-phenyl]-5-methyl-pyrrol-1-yl}-6-[^3H3-methoxy]methoxy-benzoic acid (0.2” for “[^3H]-PGE2 (3”, “400” for “100”, “45” for “30”, “37°” for “30°”, “water at ambient temperature,” for “ice cold assay buffer,”
The preparation of 3-{2-[5-Bromo-2-(2,4-difluoro-benzyloxy)-phenyl]-5-methyl-pyrrol-1-yl}-6-methoxy-benzoic acid is described in WO 03/101959 and in Hall et al, Biorg. Med. Chem. Lett., 2007, 17, 916-920. The tritiated version may be prepared via conventional routes, e.g. from 3-{2-[5-bromo-2-(2,4-difluoro-benzyloxy)-phenyl]-5-methyl-pyrrol-1-yl}-6-hydroxy-benzoic acid or 3-{2-[5-bromo-2-(2,4-difluoro-benzyloxy)-phenyl]-5-methyl-pyrrol-1-yl}-6-hydroxy-benzoic acid methyl ester.

Ki (human EP3 receptor) [nM]	Ki (human EP1 receptor [1]) [nM]	IC50 (human EP1 receptor [2]) [nM]	SMILES
501 to 10000	≤ 316		CCNCc1ccc(NC(=O)c2ccc(Cc3cc(Cl)cc4cc(C(C)C)oc34)o2)cc1 [Example 56, 5-{[5-Chloro-2-(1-methylethyl)-1-benzofuran-7-yl]methyl}-N-{4-[(ethylamino)methyl]phenyl}-2-furancarboxamide Hydrochloride]
501 to 10000	≤ 316	≤ 100	CC(C)c1cc2cc(Cl)cc(Cc3ccc(C(=O)Nc4ccc(CN5CCCC5)cc4)o3)c2o1 [Example 53, 5-{[5-Chloro-2-(1-methylethyl)-1-benzofuran-7-yl]methyl}-N-[4-(1-pyrrolidinylmethyl)phenyl]-2-furancarboxamide]
501 to 10000	≤ 316		CC(C)c1cc2cc(Cl)cc(Cc3ccc(C(=O)NN(C)C)o3)c2o1 [Example 39, 5-{[5-Chloro-2-(1-methylethyl)-1-benzofuran-7-yl]methyl}-N′,N′-dimethyl-2-furancarbohydrazide]
501 to 10000			CC(C)NC(=O)c1ccc(Cc2cc(Cl)cc3cc(C(C)C)oc23)o1 [Example 38, 5-{[5-Chloro-2-(1-methylethyl)-1-benzofuran-7-yl]methyl}-N-(1-methylethyl)-2-furancarboxamide]
	1000 to 1580	≤ 100	CC(C)c1cc2cc(Cl)cc(Cc3ccc(C(=O)NCC4CCNCC4)o3)c2o1 [Example 48]
	≤ 316	≤ 100	CC(C)c1cc2cc(Cl)cc(Cc3ccc(C(N)=O)o3)c2o1 [Example 37, 5-{[5-Chloro-2-(1-methylethyl)-1-benzofuran-7-yl]methyl}-2-furancarboxamide]
	≤ 316	≤ 100	CC(C)c1cc2cc(Cl)cc(Cc3cccc(C(=O)O)n3)c2o1 [Example 24]

The remaining lines, values behind:

SMILES	Ki (human EP3 receptor) [nM]	Ki (human EP1 receptor [1]) [nM]	IC50 (human EP1 receptor [2]) [nM]
CCCc1cc2cc(Cl)cc(Cn3nc(C(=O)O)cc3C)c2o1 [Example 21, 1-[(5-chloro-2-propyl-1-benzofuran-7-yl)methyl]-5-methyl-1H-pyrazole-3-carboxylic Acid]	501 to 10000	≤ 316	≤ 100
CC(C)c1cc2cc(Cl)cc(Cc3cccc(C(=O)NCC4CCNCC4)n3)c2o1 [Example 47, 6-{[5-Chloro-2-(1-methylethyl)-1-benzofuran-7-yl]methyl}-N-(4-piperidinylmethyl)-2-pyridinecarboxamidehydrochloride]	501 to 10000		
Cc1cc(NC(=O)OCC2CCNCC2)nn1Cc1cc(Cl)cc2cc(C(C)C)oc12 [Example 4, 4-Piperidinylmethyl (1-{[5-chloro-2-(1-methylethyl)-1-benzofuran-7-yl]methyl}-5-methyl-1H-pyrazol-3-yl)carbamate Hydrochloride]	501 to 10000	≤ 316	
CNCc1ccc(NC(=O)c2cc(C)n(Cc3cc(Br)cc4cc(C(C)C)oc34)n2)cc1 [Example 50, 1-{[5-Bromo-2-(1-methylethyl)-1-benzofuran-7-yl]methyl}-5-methyl-N-{4-[(methylamino)methyl]phenyl}-1H-pyrazole-3-carboxamidehydrochloride]		≤ 316	≤ 100
Cc1cc(C(=O)N2CCOCC2)nn1Cc1cc(Cl)cc2cc(C3CC3)oc12 [Example 32, 4-({1-[(5-chloro-2-cyclopropyl-1-benzofuran-7-yl)methyl]-5-methyl-1H-pyrazol-3-yl}carbonyl)morpholine]	501 to 10000	≤ 316	
Cc1cc(C(=O)O)nn1Cc1cc(Cl)cc2cc(C(C)(C)C)oc12 [Example 27, 1-{[5-Chloro-2-(1,1-dimethylethyl)-1-benzofuran-7-yl]methyl}-5-methyl-1H-pyrazole-3-carboxylic Acid]		≤ 316	≤ 100
Cc1cc(C(=O)NC2CCOCC2)nn1Cc1cc(Cl)cc2cc(C3CCCCC3)oc12 [Example 29, 1-[(5-Chloro-2-cyclohexyl-1-benzofuran-7-yl)methyl]-5-methyl-N-(tetrahydro-2H-pyran-4-yl)-1H-pyrazole-3-carboxamide]		≤ 316	≤ 100
Cc1cc(C(=O)O)nn1Cc1cc(C#N)cc2cc(C(C)C)oc12 [Example 25, 1-{[5-Cyano-2-(1-methylethyl)-1-benzofuran-7-yl]methyl}-5-methyl-1H-pyrazole-3-carboxylic Acid]		≤ 316	≤ 100
